Test results from patent US20120142667A1, “PYRIMIDINE DERIVATIVES AS ZAP-70 INHIBITORS” (priority 2009, published 2012).
Where a name gives a salt, the structure may show the parent alone.

Target: T1, ZAP-70 (Homo sapiens, UniProt P43403)
T1 construct: endogenous in cells; host or cells: cell lysate
T1 sequence (P43403 1-619): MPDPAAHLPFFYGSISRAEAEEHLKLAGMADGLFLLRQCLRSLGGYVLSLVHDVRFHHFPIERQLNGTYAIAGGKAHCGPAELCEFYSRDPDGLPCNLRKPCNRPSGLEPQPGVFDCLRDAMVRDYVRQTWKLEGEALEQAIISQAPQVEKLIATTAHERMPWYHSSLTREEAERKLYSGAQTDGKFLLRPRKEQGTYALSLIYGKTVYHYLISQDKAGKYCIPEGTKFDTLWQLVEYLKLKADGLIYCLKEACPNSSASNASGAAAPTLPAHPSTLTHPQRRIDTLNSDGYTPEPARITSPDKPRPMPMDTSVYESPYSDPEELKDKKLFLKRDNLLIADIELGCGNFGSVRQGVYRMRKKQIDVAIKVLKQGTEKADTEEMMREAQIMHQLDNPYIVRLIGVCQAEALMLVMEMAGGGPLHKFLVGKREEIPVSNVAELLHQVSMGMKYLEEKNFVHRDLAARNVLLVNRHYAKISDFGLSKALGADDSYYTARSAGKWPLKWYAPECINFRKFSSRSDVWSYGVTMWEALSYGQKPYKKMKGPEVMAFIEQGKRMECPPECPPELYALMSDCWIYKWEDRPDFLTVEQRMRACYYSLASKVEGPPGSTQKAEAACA
Assay: ZAP-70 kinobeads assay
Assay type: binding
Conditions: cell lysate
Method: The compounds of the present invention as described in the previous examples can be tested in the ZAP-70 kinobeads assay as described (EP-A 1862802 and WO-A 2007/137867). Briefly, test compounds (at various concentrations) and the affinity matrix with the immobilized aminopyrido-pyrimidine ligand 24 are added to cell lysate aliquots and allowed to bind to the proteins in the lysate sample. After the incubation time the beads with captured proteins are separated from the lysate. Bound proteins are then eluted and the presence ZAP-70 is detected and quantified using a specific antibody in a dot blot procedure and the Odyssey infrared detection system.

Row | IC50 [nM] | SMILES
1 | 1000 to 10000 | CS(=O)(=O)Nc1ccccc1Nc1nc(Nc2ccccc2F)ncc1F [Example 1, N-(2-(5-fluoro-2-(2-fluorophenylamino)pyrimidin-4-ylamino)phenyl)methanesulfonamide]
2 | 1000 to 10000 | CS(=O)(=O)Nc1ccccc1Nc1nc(Nc2ccccc2OC(F)F)ncc1Br [Example 6, N-(2-(5-bromo-2-(2-(difluoromethoxy)phenylamino)pyrimidin-4-ylamino)phenyl)methanesulfonamide]
3 | 100 to 1000 | COc1ccc(OC)c(Nc2ncc(Br)c(Nc3ccccc3NS(C)(=O)=O)n2)c1 [Example 7, N-(2-(5-bromo-2-(2,5-dimethoxyphenylamino)pyrimidin-4-ylamino)phenyl)methanesulfonamide]
4 | 1000 to 10000 | COc1ccccc1Nc1ncc(F)c(Nc2ccccc2NS(C)(=O)=O)n1 [Example 8, N-(2-(5-fluoro-2-(2-methoxyphenylamino)pyrimidin-4-ylamino)phenyl)methanesulfonamide]
5 | 1000 to 10000 | COc1cccc(Nc2ncc(Br)c(Nc3ccccc3NS(C)(=O)=O)n2)c1OC [Example 9, N-(2-(5-bromo-2-(2,3-dimethoxyphenylamino)pyrimidin-4-ylamino)phenyl)methanesulfonamide]
6 | 1000 to 10000 | CS(=O)(=O)Nc1ccccc1Nc1nc(Nc2cc(F)ccc2F)ncc1F [Example 10, N-(2-(2-(2,5-difluorophenylamino)-5-fluoropyrimidin-4-ylamino)phenyl)methanesulfonamide]
7 | 1000 to 10000 | COc1ccc(C)c(Nc2ncc(F)c(Nc3ccccc3NS(C)(=O)=O)n2)c1 [Example 13, N-(2-(5-fluoro-2-(5-methoxy-2-methylphenylamino)pyrimidin-4-ylamino)phenyl)methanesulfonamide]
8 | 1000 to 10000 | COc1ccc(Nc2ncc(F)c(Nc3ccccc3NS(C)(=O)=O)n2)c(OC)c1 [Example 14, N-(2-(2-(2,4-dimethoxyphenylamino)-5-fluoropyrimidin-4-ylamino)phenyl)methanesulfonamide]
9 | 1000 to 10000 | COc1ccc(OC)c(Nc2ncc(F)c(Nc3ccccc3NS(C)(=O)=O)n2)c1 [Example 15, N-(2-(2-(2,5-dimethoxyphenylamino)-5-fluoropyrimidin-4-ylamino)phenyl)methanesulfonamide]
10 | 100 to 1000 | CS(=O)(=O)Nc1ccccc1Nc1nc(Nc2ccccc2F)ncc1Br [Example 17, N-(2-(5-bromo-2-(2-fluorophenylamino)pyrimidin-4-ylamino)phenyl)methanesulfonamide hydrochloride]
11 | 1000 to 10000 | CS(=O)(=O)Nc1ccccc1Nc1nc(Nc2ccccc2Cl)ncc1Br [Example 18, N-(2-(5-bromo-2-(2-chlorophenylamino)pyrimidin-4-ylamino)phenyl)methanesulfonamide hydrochloride]
12 | 1000 to 10000 | CCc1ccccc1Nc1ncc(Br)c(Nc2ccccc2NS(C)(=O)=O)n1 [Example 19, N-(2-(5-bromo-2-(2-ethylphenylamino)pyrimidin-4-ylamino)phenyl)methanesulfonamide hydrochloride]
13 | 100 to 1000 | CS(=O)(=O)Nc1ccccc1Nc1nc(Nc2ccccc2O)ncc1Br [Example 20, N-(2-(5-bromo-2-(2-hydroxyphenylamino)pyrimidin-4-ylamino)phenyl)methanesulfonamide hydrochloride]
14 | 100 to 1000 | COc1ccccc1Nc1ncc(Br)c(Nc2ccccc2NS(C)(=O)=O)n1 [Example 21, N-(2-(5-bromo-2-(2-methoxyphenylamino)pyrimidin-4-ylamino)phenyl)methanesulfonamide hydrochloride]
15 | 100 to 1000 | COc1ccc(Nc2nc(Nc3cc(OC)ccc3OC)ncc2Cl)c(NS(C)(=O)=O)c1 [Example 22, N-(2-(5-chloro-2-(2,5-dimethoxyphenylamino)pyrimidin-4-ylamino)-5-methoxyphenyl)methanesulfonamide]
16 | 100 to 1000 | COc1ccc(Nc2nc(Nc3cc(OC)ccc3OC)ncc2Br)c(NS(C)(=O)=O)c1 [Example 23, N-(2-(5-bromo-2-(2,5-dimethoxyphenylamino)pyrimidin-4-ylamino)-5-methoxyphenyl)methanesulfonamide]
17 | 100 to 1000 | Cc1ccccc1Nc1ncc(Br)c(Nc2ccccc2NS(C)(=O)=O)n1 [Example 24, N-(2-(5-bromo-2-(2-methylphenylamino)pyrimidin-4-ylamino)phenyl)methanesulfonamide hydrochloride]

Row | IC50 [nM] | SMILES
18 | 100 to 1000 | COc1ccc(Nc2nc(Nc3cc(OC)c(OC)cc3OC)ncc2F)c(NS(C)(=O)=O)c1 [Example 25, N-(2-(5-fluoro-2-(2,4,5-trimethoxyphenylamino)pyrimidin-4-ylamino)-5-methoxyphenyl)methanesulfonamide]
19 | 100 to 1000 | COc1ccc(Nc2ncc(Br)c(Nc3ccccc3NS(C)(=O)=O)n2)c(OC)c1 [Example 26, N-(2-(5-bromo-2-(2,4-dimethoxyphenylamino)pyrimidin-4-ylamino)phenyl)methanesulfonamide]
20 | 1000 to 10000 | COc1ccc(Nc2nc(Nc3cc(OC)ccc3OC)ncc2F)c(NS(C)(=O)=O)c1 [Example 27, N-(2-(2-(2,5-dimethoxyphenylamino)-5-fluoropyrimidin-4-ylamino)-5-methoxyphenyl)methanesulfonamide]
21 | ≤ 100 | COc1cc(OCCCN2CCCCC2)ccc1Nc1ncc(Br)c(Nc2ccccc2NS(C)(=O)=O)n1 [Example 28, N-(2-(5-bromo-2-(2-methoxy-4-(3-(piperidin-1-yl)propoxy)phenylamino)pyrimidin-4-ylamino)phenyl)methanesulfonamide]
22 | 100 to 1000 | COc1cc(OC)c(OC)cc1Nc1ncc(Br)c(Nc2ccccc2NS(C)(=O)=O)n1 [Example 31, N-(2-(5-bromo-2-(2,4,5-trimethoxyphenylamino)pyrimidin-4-ylamino)phenyl)methanesulfonamide]
23 | 100 to 1000 | COc1ccc(Nc2ncc(Cl)c(Nc3ccc(OC)cc3NS(C)(=O)=O)n2)c(F)c1 [Example 33, N-(2-(5-chloro-2-(2-fluoro-4-methoxyphenylamino)pyrimidin-4-ylamino)-5-methoxyphenyl)methanesulfonamide]
24 | 100 to 1000 | COc1ccc(Nc2nc(Nc3ccc(OC)cc3OC)ncc2Cl)c(NS(C)(=O)=O)c1 [Example 34, N-(2-(5-chloro-2-(2,4-dimethoxyphenylamino)pyrimidin-4-ylamino)-5-methoxyphenyl)methanesulfonamide]
25 | 100 to 1000 | COc1ccc(Nc2ncc(Cl)c(Nc3ccc(OC)cc3NS(C)(=O)=O)n2)c(C)c1 [Example 35, N-(2-(5-chloro-2-(4-methoxy-2-methylphenylamino)pyrimidin-4-ylamino)-5-methoxyphenyl)methanesulfonamide]
26 | 100 to 1000 | COc1ccc(Nc2nc(Nc3ccc(OC)nc3OC)ncc2Cl)c(NS(C)(=O)=O)c1 [Example 36, N-(2-(5-chloro-2-(2,6-dimethoxypyridin-3-ylamino)pyrimidin-4-ylamino)-5-methoxyphenyl)methanesulfonamide]
27 | 100 to 1000 | COc1ccc(Nc2nc(Nc3cc(F)c(OC)cc3OC)ncc2Cl)c(NS(C)(=O)=O)c1 [Example 38, N-(2-(5-chloro-2-(5-fluoro-2,4-dimethoxyphenylamino)pyrimidin-4-ylamino)-5-methoxyphenyl)methanesulfonamide hydrochloride]
28 | 100 to 1000 | COc1ccc(Nc2nc(Nc3cc(C)c(OC)cc3OC)ncc2Cl)c(NS(C)(=O)=O)c1 [Example 39, N-(2-(5-chloro-2-(2,4-dimethoxy-5-methylphenylamino)pyrimidin-4-ylamino)-5-methoxyphenyl)methanesulfonamide]
29 | 100 to 1000 | COc1ccc(Nc2nc(Nc3cc4c(cc3OC)OCCO4)ncc2Cl)c(NS(C)(=O)=O)c1 [Example 40, N-(2-(5-chloro-2-(7-methoxy-2,3-dihydrobenzo[b][1,4]dioxin-6-ylamino)pyrimidin-4-ylamino)-5-methoxyphenyl)methanesulfonamide]
30 | 100 to 1000 | COc1ccc(Nc2ncc(Cl)c(Nc3ccc(OC)cc3NS(C)(=O)=O)n2)c(O)c1 [Example 41, N-(2-(5-chloro-2-(2-hydroxy-4-methoxyphenylamino)pyrimidin-4-ylamino)-5-methoxyphenyl)methanesulfonamide]
31 | 100 to 1000 | COc1ccc(Nc2nc(Nc3cc(F)ccc3OC)ncc2Cl)c(NS(C)(=O)=O)c1 [Example 42, N-(2-(5-chloro-2-(5-fluoro-2-methoxyphenylamino)pyrimidin-4-ylamino)-5-methoxyphenyl)methanesulfonamide]
32 | 100 to 1000 | COc1ccc(Nc2nc(Nc3ccc(F)cc3OC)ncc2Cl)c(NS(C)(=O)=O)c1 [Example 43, N-(2-(5-chloro-2-(4-fluoro-2-methoxyphenylamino)pyrimidin-4-ylamino)-5-methoxyphenyl)methanesulfonamide]
33 | 100 to 1000 | COc1ccc(Nc2nc(Nc3cccc(OC)c3OC)ncc2Cl)c(NS(C)(=O)=O)c1 [Example 44, N-(2-(5-chloro-2-(2,3-dimethoxyphenylamino)pyrimidin-4-ylamino)-5-methoxyphenyl)methanesulfonamide]
